Structures are written as SMILES.

The test system of data set [1] is HeLa cells. The data set is described as follows: Photostability under continuous laser irradiation in stained cells. The data set is classed as cell-based. The settings on record: 15 min continuous laser irradiation, λex 488 nm. As to the method:
For photostability studies, TTVP-labelled HeLa cells were imaged by a confocal microscope (Zeiss laser scanning confocal microscope LSM7 DUO) using ZEN 2009 software (Carl Zeiss). Conditions: for TTVP, excitation wavelength: 488 nm; for DiO, excitation wavelength: 488 nm (5% laser power).
The specificity of TTVP to plasma membrane was evaluated by co-staining with DiO, which is a commercially available bioprobe for plasma membrane. In this co-localization experiment, after incubating HeLa cells with DiO for 10 min, TTVP was added into the culture followed by culture shaking for a few seconds at room temperature. In order to accommodate the staining protocol of DiO, postwashing after cell staining was carried out. As shown in FIGS. 9A-9H, TTVP can selectively accumulate in the plasma membrane and emit strong red fluorescence. The well-merged images of TTVP and DiO indicate the high specificity of the compounds to the plasma membrane, and the Pearson's correlation coefficient is determined to be 89%. To assess the photostability of TTVP and DiO, continuous excitation and sequential scanning with confocal microscope were utilized.

The next data set in a line: Water solubility. In kind it is physicochemical. An excerpt: (§1) TTVP benefits from its positively charged amine and pyridinium salt having hydrophilic characteristic, as well as the small size of the hydrophobic moiety. […] The relatively long absorption wavelength can be attributed to its small HOMO-LOMO energy gap, which is caused by the strong electron donating-accepting interaction of the emitting center (FIGS. 3A-3C).

Another data set deals with MDCK2 cells. The data set is described as follows: Ultrafast wash-free plasma membrane imaging. The following applies: 500 nM, around 3 s. In kind it is cell-based. As to the method:
(§2) For cell imaging, cells were grown in a 35 mm Petri dish with a coverslip at 37° C. The live cells were incubated with a certain dye at a certain concentration for a certain time. After adding TTVP (500 nM), the Petri dish was shaken for a few seconds at room temperature, then the coverslip was removed. The TTVP-labelled cells were mounted and imaged using a laser scanning confocal microscope (LSM7 DUO) at 512 nm with 5% laser power (the scanning rate was 22.4 s per frame). The emission filter was 600-744 nm.
(§3) Encouraged by the distinct advantages of TTVP for membrane-specific imaging, this ultrafast staining and wash-free cellular imaging protocol was further employed for staining other cell lines, including 293T, HCC827, HCT116, and MDCK2.

Another data set relates to HCC827 cells. The data set is described as follows: Ultrafast wash-free plasma membrane imaging. In kind it is cell-based. The settings on record: 500 nM, around 3 s. Here is the method: as §2, §3
Another data set relates to 293T cells. The data set is described as follows: Ultrafast wash-free plasma membrane imaging. In kind it is cell-based. The following applies: 500 nM, around 3 s. Here is the method:
as §2, §3

The test system of another data set is HCT116 cells. The data set is described as follows: Ultrafast wash-free plasma membrane imaging. In kind it is cell-based. The settings on record: 500 nM, around 3 s. Here is the method:
as §2, §3

Data set [2] can be described thus: ROS generation with H2DCF-DA indicator under white light. The settings on record: 10 μM TTVP, 5 μM H2DCF-DA in PBS, white light 10 mW, within 60 s. An excerpt:
The strong absorption of TTVP in the visible light region permits utilization of visible light as the excitation light source for PDT processes. Visible light causes less damage to biological systems than UV light. The ROS generation efficiency of TTVP was initially determined by the use of H2DCF-DA as an indicator, which emits fluorescence with a “turn on” process triggered by ROS. As depicted in FIG. 11A, TTVP or H2DCF-DA alone was non-emissive or weekly emissive, and each fluorescence intensity remained almost constant within 60 s white light irradiation. […] The efficient ROS generation of TTVP could be attributed to both its small singlet-triplet energy gap (0.47 eV) and excellent monodispersity. The former favors the improvement of the yield of the triplet excited state, and the latter can enlarge contact area between TTVP and oxygen.

The test system of data set [3] is HeLa cells. Kind of data set: Flow cytometry Annexin V-FITC/PI double staining for apoptosis and necrosis. The settings on record: 500 nM. In kind it is cell-based. As to the method:
Effective ROS generation of the present compounds in PDT applications was quantitatively evaluated on HeLa cells by a standard MTT assay. A dose-dependent toxicity was determined in both the absence and presence of white light irradiation. […] In comparison, HeLa cells retained 90% viability when they were incubated with 1 μM of TTVP in dark conditions. Furthermore, flow cytometric analysis using Annexin V-FITC/propidium iodide (PI) double staining was utilized to determine cell apoptosis (FIGS. 11C and 11D). […] It is worth noting that continuous light irradiation with strong power (around 18.5 times higher than that for cell imaging depicted in FIGS. 6A-6H and FIGS. 8A-8H) led to some changes of cells, for instance, TTVP can gradually enter the cells (FIGS. 11E-11I); the cell membrane morphology changed, and the formation of blebs on the plasma membrane was clearly observed, which is a sign of cell death. Those changes can be attributed to the fact that the ROS generated from TTVP considerably disrupts the rigidity and permeability of plasma membrane, and induces cancer cell death. FIGS. 12A, 12B, 12C, 12D, and 12E depict bright-field confocal images of HeLa cell stained with TTVP upon the increase of irradiation time. λex: 488 nm (20% laser power, 0.925 μW).
A general note: A flow cytometer gives signals particle by particle.

For data set [4], the system named is HeLa cells. Kind of data set: MTT cytotoxicity in dark conditions (biocompatibility). In kind it is cell-based. Here is the method:
For cytotoxicity studies relating to biocompatibility of the present compounds to Hela cells, MTT assays were used to evaluate the cytotoxicity of the presented AIEgens. Cells were seeded in 96-well plates (Costar, IL, USA) at a density of 6000-8000 cells/well. After overnight culturing, medium in each well were replaced by 100 μL fresh medium containing different concentrations of TTVP. 24 hours later, 10 μL MTT solution (5 mg/mL in PBS) was added into each well. After 4 hours of incubation, 100 μL SDS-HCl aqueous solution (10% SDS and 0.01 M HCl) was added to each well. After incubation for 4 hours, the absorption of each well at 595 nm was recorded via a plate reader (Perkin-Elmer Victor3™). Each trial was performed with 6 wells parallel.
(§4) Effective ROS generation of the present compounds in PDT applications was quantitatively evaluated on HeLa cells by a standard MTT assay. A dose-dependent toxicity was determined in both the absence and presence of white light irradiation. […] In comparison, HeLa cells retained 90% viability when they were incubated with 1 μM of TTVP in dark conditions. Furthermore, flow cytometric analysis using Annexin V-FITC/propidium iodide (PI) double staining was utilized to determine cell apoptosis (FIGS. 11C and 11D). […]

Data set [5] is described as follows: DLS analysis of nanoaggregates in water/THF. The data set is classed as physicochemical. The following applies: suspension with 90% fraction of THF. As to the method:
(§5) Dynamic light scattering analysis (DLS) and transmission electron microscope (TEM) measurements were performed to confirm the formation of aggregates upon the addition of THF into the TTVP aqueous solution. […] In the solid state, TTVP emitted at 705 nm with 2.7% of quantum yield and 0.92 ns of lifetime (FIGS. 4-5, Table 1).

Data set [6] concerns HeLa cells. Kind of data set: MTT cytotoxicity under white light irradiation (PDT). The data set is classed as cell-based. The following applies: white light irradiation (around 10 mW) 10 min. Here is the method: For cytotoxicity studies relating to cytotoxicity of the present compounds to cancer cells under light irradiation, HeLa cells were seeded in 96-well plates (Costar, IL, USA) at a density of 6000-8000 cells/well. After overnight culturing, medium in each well were replaced by 100 μL fresh medium containing different concentrations of TTVP. After incubation for 3 s, plates containing HeLa cells were exposed to white light (around 10 mW) for 10 min, and another array of plates with cells were kept in dark as control. Then the plates were subjected to the same treatment as the biocompatibility test.
as §4

In data set [7] the test system is plasma membrane of living HeLa cells. Kind of data set: Plasma membrane cell imaging by confocal microscopy. The data set is classed as cell-based. As to the method:
as §2
As a water-soluble NIR-emissive AIEgen, TTVP maintains an “off” state in an aqueous environment. As such, TTVP can serve as a “light-up” probe for bioimaging with minimal background interference from both free dyes and bio-substrate autofluorescence. In preliminary bioimaging experiments, cell imaging studies were conducted using HeLa cells as a cell model, and incubating 500 nM of TTVP for 10 min. […] The influence of incubation period was then investigated by utilizing a wash-free procedure with different staining times. […] The plasma membrane-staining ability of TTVP can be mainly attributed to its good hydrophilicity, which impedes the permeation of TTVP passing through the hydrophobic region of phospholipid bilayers. It is believed that the emitting moiety of TTVP is embedded within the hydrophobic region with low polarity, evidently giving fluorescent emission upon irradiation according to the restriction of intramolecular motions (RIM) mechanism of the AIE process (FIG. 6G). […] Additionally, ultrafast staining could result from the excellent monodispersity of TTVP in culture media of cells.

The nature of data set [8]: Photophysical (optical) properties of TTVP. In kind it is physicochemical. As to the method:
H spectra were measured on Bruker ARX 400 NMR spectrometers using CD3OD as the deuterated solvent. High-resolution mass spectra (HRMS) were recorded on a Finnegan MAT TSQ 7000 Mass Spectrometer System operating in a MALDI-TOF mode. UV absorption spectra were taken on a Milton Ray Spectronic 3000 array spectrophotometer. Steady-state fluorescence spectra were recorded on a Perkin Elmer LS 55 spectrometer. Fluorescence images were collected on Olympus BX 41 fluorescence microscope. Laser confocal scanning microscope images were collected on Zeiss laser scanning confocal microscope (LSM7 DUO) and analyzed using ZEN 2009 software (Carl Zeiss).
as §1, §5

As to `CCCCCCCCCCCCCCCCCCN1/C(=C\C=C\c2oc3ccccc3[n+]2CCCCCCCCCCCCCCCCCC)Oc2ccccc21.[O-][Cl+3]([O-])([O-])[O-]` [DiO, reference compound], the “change of emission intensity on irradiation (photostability)” value in the data set with HeLa cells [1] is on record as “fluorescence loss of DiO was very obvious”.
As a reminder, the cell viability is a per cent measure of how many cells are alive, often set against a control. Higher therefore signals better survival. The term viability denotes a per cent measure of how many cells are alive, often set against a control. For the molecule `C[N+](C)(C)CCC[n+]1ccc(/C=C/c2ccc(-c3ccc(N(c4ccccc4)c4ccccc4)cc3)s2)cc1` [TTVP], in “Water solubility”, the water solubility result is “good water solubility”. In addition, the “change of emission intensity on irradiation (photostability)” value in the data set on HeLa cells [1] is given as “slightly decreased”. Also, the plasma membrane visualization entry in the data set on MDCK2 cells is given as “clearly visualized”; in the data set on HCC827 cells, “clearly visualized”; in the data set on 293T cells, “clearly visualized”; in the data set on HCT116 cells, “clearly visualized”; in [7] (500 nM, 10 min incubation, with or without washing), “clearly visualized with excellent image contrast”; in data set [7] (500 nM, staining time 4 h), “still be clearly visualized”. The “enhancement of H2DCF-DA emission intensity (ROS generation)” value in [2] was determined as 87 fold. The “cell necrosis on light irradiation” value in the data set on HeLa cells [3] is given as “caused cancer cell necrosis in a short period of time”. In the data set with HeLa cells [4], the “cytotoxicity in dark conditions” value is reported as “low cytotoxicity”. This molecule also came in with a cell viability in the data set on HeLa cells [4] (1 μM) of 90%. Besides, the “average hydrodynamic diameter of nanoaggregates” value in data set [5] was “around 43 nm”. The polydispersity index in data set [5] turned out to be 0.13. For the same molecule, in the data set with HeLa cells [6] (1 μM), the cell death entry was “almost complete cell death”. For the same molecule, the viability at 0.5 µM in the data set with HeLa cells [6] (Homo sapiens, HeLa, light or radiation study, 10 min, 500 nM, read-out: cell viability) was 15%. In data set [7] (500 nM, shaking a few seconds at room temperature, wash-free), the plasma membrane staining entry was “lit up significantly”. Also, the “cellular localization after long staining” value in data set [7] (500 nM, staining for 6 hours) is “A majority of TTVP entered the cells”. Moreover, the “maximum emission of stained living cells” value in data set [7] (living HeLa cells stained with TTVP) was 623 nm. For the same molecule, the “λem (nm) Aggr, maximum emission in aggregated state” value in data set [8] (aggregated state, water/THF mixture) came out at 708 nm. For the same molecule, the “ε, molar extinction coefficient” value in [8] (aqueous solution, at 515 nm) was 33517 M⁻¹ cm⁻¹. For the same molecule, in data set [8] (aqueous solutions), the “λabs (nm), absorption maximum” value worked out at 515 nm. Besides, the “λem (nm) Solid, emission maximum in solid state” value in [8] (solid state) came to 705 nm. Moreover, the “τ, fluorescence lifetime” value in data set [8] (solid state, ambient conditions) is on record as 0.92 ns. For the same molecule, the “ΦF, fluorescence quantum yield” value in data set [8] (solid state, calibrated integrating sphere) is given as 2.7%.

The values are drawn from patent US11253592B2, “Water-soluble compounds with aggregation-induced emission characteristics” (THE HONG KONG UNIVERSITY OF SCIENCE AND TECHNOLOGY, priority 2017, dated 2022).
